According to PMC12703733, “Probing Guanidino Pendant or Bridged Groups in Cyclic Antimicrobial Peptides Derived from Temporin L: A Strategy to Improve Efficacy against Gram-Negative Bacteria” (Journal of Medicinal Chemistry, 2025):
≈ marks a conversion by molar mass, not a printed value. Where two headings read alike, the source gives them in different places. Bridge positions count the residues as written; N and C are the ends. Square brackets hold non-standard residues; d marks the D form. Peptide text beside a SMILES is read from it. Pro(cis-4-guanidino) = NC(N)=N[C@@H]1CN[C@H](C(=O)O)C1; Phe(4-guanidino) = N=C(N)Nc1ccc(C[C@H](N)C(=O)O)cc1

Tests used:
[1] = type: cell-based
Protocol: (§1) For the evaluation of peptides’ cytotoxicity, the human immortalized keratinocytes (HaCaT cells), purchased from AddexBio (San Diego, CA, USA), and BEAS-2B were used. HaCaT cells were cultured in Dulbecco’s modified Eagle’s medium supplemented with 4 mM glutamine (DMEM), 10% heat-inactivated fetal bovine serum (FBS), and 0.1 mg/mL of penicillin and streptomycin, at 37 °C and 5% CO2. BEAS-2B cells were cultured in RPMI, supplemented with 2 mM glutamine (DMEM), 10% heat-inactivated fetal bovine serum (FBS), 1 mM sodium pyruvate, and 0.1 mg/mL of penicillin and streptomycin, at 37 °C and 5% CO2. Cytotoxicity was tested in vitro using a colorimetric assay that relies on the intracellular reduction of the yellow 3-(4,5-dimethylthiazol-2-yl)-2,5-diphenyltetrazolium bromide salt (MTT) by mitochondrial dehydrogenases of metabolically active cells in formazan crystals (purple). About 4 × 10^4 HaCaT and BEAS-2B cells, suspended in DMEM supplemented with 2% FBS, were plated in triplicate wells of a 96-well microtiter plate. The plate was incubated overnight at 37 °C and 5% CO2. Then, the cells were treated with different concentrations of the peptide (from 100 to 3.12 μM) in a fresh serum-free medium for 2 h and for a longer time (24 h). Following peptide treatment, the medium was removed, and MTT (0.5 mg/mL) solution in Hank’s buffer (136 mM NaCl, 4.2 mM Na2HPO4, 4.4 mM KH2PO4, 5.4 mM KCl, 4.1 mM NaHCO3, pH 7.2, supplemented with 20 mM D-glucose) was added to each well of the plate, that was then incubated for 4 h at 37 °C and 5% CO2. The purple formazan crystals were dissolved using acidified 2-propanol and a microplate reader (Infinite M200; Tecan, Salzburg, Austria) was used to measure the absorbance of each well at 570 nm. The percentage of cell viability was calculated compared to the control, which consisted of cells without any peptide treatment (corresponding to 100% viability) and all data represent the mean of three independent experiments ± SEM.

[2] = type: cell-based, human; details: human; for viability at 2 h, 3.12 µM / viability at 2 h, 6.25 µM / viability at 2 h, 12.5 µM / viability at 2 h, 25 µM / viability at 2 h, 50 µM / viability at 2 h, 100 µM / viability at 24 h, 3.12 µM / viability at 24 h, 6.25 µM / viability at 24 h, 12.5 µM / viability at 24 h, 25 µM / viability at 24 h, 50 µM / viability at 24 h, 100 µM: Cell viability (%)
Protocol: as §1

[3] = circular dichroism; details: water; pH ns; 25 °C; 150 uM
[4] = system: E. faecalis ATCC 29212; assay: microbe, parasite or virus in culture; type: cell-based; details: ATCC 29212
Protocol: (§2) Bacterial strains used in this study were the Gram-positive S. aureus ATCC 25923, S. epidermidis ATCC 12228, B. megaterium BM11, S. [NT] 27591, E. faecalis ATCC 29212 and the Gram-negative E. coli ATCC 25922, P. aeruginosa ATCC 27853, A. baumannii ATCC 19606, E. coli D21 and P. aeruginosa PAO1. […] Bacterial cells in the mid log phase were diluted in Muller Hinton (MH) at a concentration of 2 × 10^6 cell/mL. […] Ciprofloxacin was used as antibiotic control. The plate was then incubated at 37 °C. MICs were obtained from three identical readings of four independent experiments.

[5] = system: E. coli D21; assay: microbe, parasite or virus in culture; type: cell-based; details: D21
Protocol: as §2

[6] = system: S. agalactiae ATCC 27591; assay: microbe, parasite or virus in culture; type: cell-based; details: ATCC 27591
Protocol: as §2

[7] = system: E. coli ATCC 25922; assay: microbe, parasite or virus in culture; type: cell-based; details: ATCC 25922
Protocol: as §2

[8] = system: B. megaterium BM11; assay: microbe, parasite or virus in culture; type: cell-based; details: BM11
Protocol: as §2

[9] = system: P. aeruginosa ATCC 27853; assay: microbe, parasite or virus in culture; type: cell-based; details: ATCC 27853
Protocol: as §2

[10] = system: S. aureus ATCC 25923; assay: microbe, parasite or virus in culture; type: cell-based; details: ATCC 25923
Protocol: as §2

[11] = system: S. epidermidis ATCC 12228; assay: microbe, parasite or virus in culture; type: cell-based; details: ATCC 12228
Protocol: as §2

[12] = system: A. baumannii ATCC 19606; assay: microbe, parasite or virus in culture; type: cell-based; details: ATCC 19606
Protocol: as §2

[13] = in vitro; type: in vitro ADME
Protocol: Peptide stability was evaluated by modifying previously described procedures. , The assays were performed in human serum and in the presence of proteolytic enzymes such as trypsin and chymotrypsin. For human serum stability, 2 mM peptide stock solutions were prepared in water and mixed with human serum (from male AB plasma, USA origin, sterile-filtered, Merck/Sigma-Aldrich, USA) to obtain a final concentration of 200 μM [human plasma/stock solution (9:1, v/v)]. The mixtures were incubated at 37 ± 1 °C, and 50 μL aliquots were taken at predetermined time intervals (0, 1, 2, 4, 8, and 24 h). Protease activity was quenched by adding 100 μL of acetonitrile (MeCN). The resulting cloudy suspensions were cooled to 4 °C for 30 min and centrifugated at 12,000 rpm for 10 min to remove the serum proteins. Then, the supernatants were analyzed by analytical HPLC (Shimadzu Nexera Liquid Chromatograph LC-30AD) which was equipped with a Phenomenex Kinetex reversed-phase column (C18, 5 μm, 100 Å, 150 mm × 4.6 mm) with a flow rate of 1 mL/min using a gradient of MeCN (0.1% TFA) in water (0.1% TFA), from 10 to 70% over 15 min, and UV detection at 220 nm. For enzyme stability, each peptide peptide (200 μM) was incubated with trypsin (0.5 μM) in PBS 1× (pH 7.2) or with chymotrypsin (0.005 μM) in Tris–HCl (100 mM, pH 7.8). Samples (50 μL) were collected at 0, 1, 2, 4, and 24 h, quenched with 0.5% TFA in water, and analyzed by HPLC under chromatographic conditions as described above. All experiments were conducted in triplicate. The percentage of intact peptides at each time point was determined by integrating the corresponding HPLC peak areas.

[14] = system: P. aeruginosa PAO1; assay: microbe, parasite or virus in culture; type: cell-based; details: PAO1
Protocol: as §2

MIC [4] [µM] | MIC [5] [µM] | MIC [6] [µM] | MIC [7] [µM] | MIC [8] [µM] | MIC [9] [µM] | MIC [10] [µM] | Compound | viability at 2 h, 3.12 µM [2] [%] | viability at 2 h, 6.25 µM [2] [%] | viability at 2 h, 12.5 µM [2] [%] | viability at 2 h, 25 µM [2] [%] | viability at 2 h, 50 µM [2] [%] | viability at 2 h, 100 µM [2] [%] | viability at 24 h, 3.12 µM [2] [%] | viability at 24 h, 6.25 µM [2] [%] | viability at 24 h, 12.5 µM [2] [%] | viability at 24 h, 25 µM [2] [%] | viability at 24 h, 50 µM [2] [%] | viability at 24 h, 100 µM [2] [%] | helicity [3] [%] | further results
12.5 (≈ 22 µg/mL) | 3.12 (≈ 5.49 µg/mL) | 1.56 (≈ 2.75 µg/mL) | 3.12 (≈ 5.49 µg/mL) | 0.78 (≈ 1.37 µg/mL) | 12.5 (≈ 22 µg/mL) | 6.25 (≈ 11 µg/mL) | CC[C@H](C)[C@H](NC(=O)[C@H](CCCNC(=N)N)NC(=O)[C@H]1CCC(=O)NCCCC[C@H](NC(=O)[C@H](Cc2ccccc2)NC(=O)[C@H](Cc2c[nH]c3ccccc23)NC(=O)[C@@H]2C[C@H](NC(=N)N)CN2C(=O)[C@@H](NC(=O)[C@@H](N)Cc2ccccc2)C(C)C)C(=O)N[C@@H](CCCCN)C(=O)N[C@@H](Cc2ccccc2)C(=O)N[C@H](CC(C)C)C(=O)N1)C(=O)N[C@@H](CC(C)C)C(N)=O [Peptide 7, FV(4-guanidino)PWF[KKFle]RIL] (H-FV[Pro(cis-4-guanidino)]WFKKF[dL][dE]RIL-NH2; lactam 6-10) | 101 | 100 | 102 | 72 | 16 | 8 | 99 ± 5 | 98 ± 1 | 95 ± 4 | 85 ± 2 | 18 ± 3 | 2 ± 1 | 1 | viability at 2 h, 3.12 µM ([1]; Cell viability (%)): 105%; viability at 2 h, 6.25 µM ([1]; Cell viability (%)): 117%; viability at 2 h, 12.5 µM ([1]; Cell viability (%)): 80%; viability at 2 h, 25 µM ([1]; Cell viability (%)): 28%; viability at 2 h, 50 µM ([1]; Cell viability (%)): 6%; viability at 24 h, 3.12 µM ([1]; Cell viability (%)): 111%; viability at 24 h, 6.25 µM ([1]; Cell viability (%)): 104%; viability at 24 h, 12.5 µM ([1]; Cell viability (%)): 90%; viability at 24 h, 25 µM ([1]; Cell viability (%)): 34%; viability at 24 h, 50 µM ([1]; Cell viability (%)): 9%; viability at 24 h, 100 µM ([1]; Cell viability (%)): 4%; viability at 12.5 µM ([1]; cell viability): ~85%; CC50 at 24 h ([2]; CC50): 37 µM; MIC [11]: 3.12 µM (≈ 5.49 µg/mL); MIC [12]: 3.12 µM (≈ 5.49 µg/mL); remaining at 4 h, 200 μM ([13]; isolated enzyme chymotrypsin, pH 7.8): ~20%; remaining at 4 h, 200 μM ([13]; isolated enzyme trypsin, pH 7.2): 10%
50 (≈ 88.1 µg/mL) | 6.25 (≈ 11 µg/mL) | 6.25 (≈ 11 µg/mL) | 6.25 (≈ 11 µg/mL) | 0.78 (≈ 1.37 µg/mL) | 50 (≈ 88.1 µg/mL) | 100 (≈ 176 µg/mL) | CC[C@H](C)[C@H](NC(=O)[C@H](CCCNC(=N)N)NC(=O)[C@H]1CCC(=O)NCCCC[C@H](NC(=O)[C@H](Cc2ccccc2)NC(=O)[C@H](Cc2c[nH]c3ccccc23)NC(=O)[C@@H]2CCCN2C(=O)[C@@H](NC(=O)[C@@H](N)Cc2ccccc2)C(C)C)C(=O)N[C@@H](CCCCN)C(=O)N[C@@H](Cc2ccc(NC(=N)N)cc2)C(=O)N[C@H](CC(C)C)C(=O)N1)C(=O)N[C@@H](CC(C)C)C(N)=O [Peptide 10, FVPWF[KK(p-guanidino)Fle]RIL] (H-FVPWFKK[Phe(4-guanidino)][dL][dE]RIL-NH2; lactam 6-10) | 105 | 110 | 112 | 112 | 101 | 82 | 98 ± 3 | 104 ± 2 | 103 ± 3 | 106 ± 3 | 116 ± 5 | 95 ± 6 | 3 | MIC [14]: 25 µM (≈ 44 µg/mL); MIC [11]: 12.5 µM (≈ 22 µg/mL); MIC [12]: 6.25 µM (≈ 11 µg/mL)
